Reference: patent US20240366594A1, “Small Molecule Inhibitors of Formation of Neutrophil-Derived Extracellular Traps (NETosis) and Uses Thereof” (The Brigham and Women's Hospital, Inc., priority 2021, published 2024)

Test system: human neutrophils
Assay: Citrullinated histone H3 (CitH3) NET induction in PMA-stimulated human neutrophils
Type: cell-based
Settings: for NET induction, measured as CitH3 staining: drugs 10, 2, 0.4, 0.08 μM or GSK484 10 μM for 1 h, then 1 μM PMA 3 h, FIGS. 1A and 5D
Experimental: FIGS. 1A-H. Class I/II HDACs drive NET formation • (A and B) Freshly purified human (A) or mouse (B) neutrophils were treated with the indicated HDAC inhibitors at different doses (10, 2, 0.4, 0.08 μM), or with GSK484 (10 μM), for 1 h and then stimulated with 1 μM PMA for 3 h. Cells were fixed and stained with anti-citrullinated histone H3 (CitH3) antibody. NETosis induction was measured as the level of anti-CitH3 fluorescent signal. PMA alone represents 100% of NET induction. “-”: Cells treated with the highest dose of the indicated drug but not activated with PMA. • (C and D) Human neutrophils were treated, or not, with ricolinostat or GSK484 and then stimulated with 1 μM PMA. NETosis induction was measured as area of nuclei stained with DAPI. (C) 3D reconstruction of nuclei in each treatment (grid size 7.8 μm). (D) Quantification of DAPI signal from multiple fields of view (D) (n=9 for unstimulated, not pretreated with any drug [NT] and ricolinostat, n=7 for GSK484). • (E and F) Human neutrophils were treated as in (C-D), and immunoblot analysis of the indicated proteins was performed. Relative quantification of band intensity was analyzed with ImageJ software (F). White violins plots depict the quantification of histone H3 acetylation; red violin plots depict the quantification of histone H3 citrullination. Immunoblot in E is representative of four independent experiments. Gasdermin D NT, gasdermin D N terminal; pMLKL, phospho-MLKL. • (G) Human (left) or murine (right) neutrophils were treated, or not, with ricolinostat (10 μM) and then stimulated with 1 μM PMA for 3 h. ROS production was measured by luminescence with luminol-HRP. Histograms represent the total amount of ROS produced overtime. • (H) Murine neutrophils were treated, or not, with ricolinostat (10 μM) and then stimulated with fluorescent E. coli at the indicated multiplicity of infection (MOI) for 1 h. The histogram represents the percentage of neutrophils positive for E. coli staining. Graphs show mean±SEM. Statistics were calculated using one-way ANOVA (A, B, D) and two-way ANOVA (F, G, H) (*p<0.05; **p<0.01; ****p<0.0001. n.s., not significant). Statistics refers to the comparison with neutrophils stimulated with PMA alone (A, B). Gray stars represent comparison of all experimental groups with the unstimulated control, and black stars represent comparison between drug-treated groups and cells treated with PMA only (NT) (D). See also FIGS. 5A-J.
FIGS. 5A-J. Class I/II HDACs drive NET formation. • A) Quantification of extracellular DNA released by neutrophils treated, or not, with 1 μM GSK484 for 1 h and then stimulated with 1 μM PMA for 4 hours. Unstimulated, neutrophils not treated with drugs were used as a control. • B) Freshly purified human neutrophils were treated with the indicated HDAC inhibitors at different doses (0.08, 0.4, 2 and 10 μM) for 1 hour. Extracellular DNA release was assessed in the supernatant 3 hours after PMA stimulation. The dotted line represents the amount of DNA released from neutrophils treated with PMA alone. “-”: cells treated with the highest dose of the indicated drug but not activated with PMA. • C) Freshly purified human neutrophils were stimulated for 1 h, 3 h or 5 h. Cells were fixed and stained with an anti-CitH3 antibody. NETosis induction was measured as level of anti-CitH3 fluorescent signal. 5h-PMA treatment represents 100% NET induction. • D) Representative images of freshly isolated human neutrophils treated or not with 10 μM of the indicated drugs and stimulated with 1 μM PMA for 3 hours. Cells were fixed and then stained for CitH3 (red) and nuclei (blue). Scale bar=100 μm. • E) Murine neutrophils were treated with ricolinostat or GSK484 and then stimulated with […] for 3 hours. NET induction was measured as in (C). […]

| SMILES | NET induction, measured as CitH3 staining | NET formation (level of CitH3), two independent donors (10, 2, 0.4, 0.08 μM for 1 h, then 1 μM PMA, FIGS. 5H, 5I) | NETosis (anti-CitH3 signal), comparison of class I/IIb and class IIb selective inhibitors (drugs 10, 2, 0.4, 0.08 μM 1 hour, then 1 μM PMA 3 hours, FIG. 5F) |
| --- | --- | --- | --- |
| COc1cc(C(=O)N2CC[C@@H](O)[C@@H](N)C2)cc2nc(-c3cc4ccccc4n3CC3CC3)n(C)c12 [GSK484] | dramatically reduced NET induction |  |  |
| O=C(CCCCCCNC(=O)c1cnc(N(c2ccccc2)c2ccccc2)nc1)NO [ricolinostat] | prevented NET release in a dose-dependent manner with an efficacy comparable with GSK484 | inhibited NET formation to a comparable extent | class I/IIb HDAC inhibition prevented NETosis |
